Laboratory results as given in patent US20130143835A1, “HCV Polymerase Inhibitors” (MEDIVIR AB, priority 2011, published 2013).
Blank lines part the entries; values can stand above or below the compound they belong to.

Assays:
[1] = system: HCV type 1b replicon in Huh-7 luc/neo (Huh-Luc) cells; assay: HCV replicon assay (Huh-Luc cells, luciferase read-out); assay type: cell-based; conditions: inhibition of HCV replication, three days incubation, luciferase activity
From the text: The in vitro antiviral activity against HCV of the compounds of formula I can be tested in a cellular HCV replicon system based on Lohmann et al. (1999) Science 285:110-113, with the further modifications described by Krieger et al. (2001) Journal of Virology 75: 4614-4624 (incorporated herein by reference), which is further exemplified in the examples section. This model, while not a complete infection model for HCV, is widely accepted as the most robust and efficient model of autonomous HCV RNA replication currently available. It will be appreciated that it is important to distinguish between compounds that specifically interfere with HCV functions from those that exert cytotoxic or cytostatic effects in the HCV replicon model, and as a consequence cause a decrease in HCV RNA or linked reporter enzyme concentration. Assays are known in the field for the evaluation of cellular cytotoxicity based for example on the activity of mitochondrial enzymes using fluorogenic redox dyes such as resazurin. Furthermore, cellular counter screens exist for the evaluation of non-selective inhibition of linked reporter gene activity, such as firefly luciferase. Appropriate cell types can be equipped by stable transfection with a luciferase reporter gene whose expression is dependent on a constitutively active gene promoter, and such cells can be used as a counter-screen to eliminate non-selective inhibitors.
The compounds of formula I may be examined for activity in the inhibition of HCV RNA replication in a cellular assay aimed at identifying compounds that inhibit a HCV functional cellular replicating cell line, also known as HCV replicons. A suitable cellular assay is based on a bicistronic expression construct, as described by Lohmann et al. (1999), Science vol. 285 pp. 110-113 with modifications described by Krieger et al. (2001), Journal of Virology 75: 4614-4624, in a multi-target screening strategy.
The assay utilizes the stably transfected cell line Huh-7 luc/neo (hereafter referred to as Huh-Luc). This cell line harbors an RNA encoding a bicistronic expression construct comprising the wild type NS3-NS5B regions of HCV type 1b translated from an Internal Ribosome Entry Site (IRES) from encephalomyocarditis virus (EMCV), preceded by a reporter portion (FfL-luciferase), and a selectable marker portion (neo^R, neomycine phosphotransferase). The construct is bordered by 5′ and 3′ NTRs (non-translated regions) from HCV type 1b. Continued culture of the replicon cells in the presence of G418 (neo^R) is dependent on the replication of the HCV RNA. The stably transfected replicon cells that express HCV RNA, which replicates autonomously and to high levels, encoding inter alia luciferase, are used for screening the antiviral compounds.
The replicon cells are plated in 384 well plates in the presence of the test and control compounds which are added in various concentrations. Following an incubation of three days, HCV replication is measured by assaying luciferase activity (using standard luciferase assay substrates and reagents and a Perkin Elmer ViewLux™ ultraHTS microplate imager). Replicon cells in the control cultures have high luciferase expression in the absence of any inhibitor. The inhibitory activity of a compound on luciferase activity is monitored on the Huh-Luc cells, enabling a dose-response curve for each test compound. EC50 values are then calculated, which value represents the amount of the compound required to decrease the level of detected luciferase activity by 50%, or more specifically, the ability of the genetically linked HCV replicon RNA to replicate.

HCV NS5B-21 = target: T1, HCV NS5B-21 (Hepatitis C virus genotype 1b, UniProt Q9WMX2); assay: HCV NS5B-21 enzyme assay (SPA, 3H-ATP incorporation); assay type: biochemical; conditions: HCV NS5B-21 SPA enzyme assay, triphosphate tested
T1 construct: HCV NS5B-21 (21-aminoacid C-terminally truncated version); purchased Replizyme
Experimental: It is this triphosphate which is believed to be the antivirally active species. The enzyme assay described here example may be used to confirm that compounds of the invention are antivirally active as the 5′-triphosphate metabolite.
The enzyme assay measures the inhibitory effect of triphosphate compounds in an HCV NS5B-21 (21-aminoacid C-terminally truncated version) SPA assay (scintillation proximity assay). The assay is performed by evaluating the amount of radiolabelled ATP incorporated by HCV NS5B-21 into newly synthesized RNA using an heterogeneous biotinylated RNA template.
To determine IC50 values the compounds are tested at various concentrations in a final volume of 100 μl of reaction mixture. The reaction is stopped by addition of 0.5M EDTA solution. The samples are transferred into flashplates precoated with streptavidin. The incorporated radioactivity is quantified using a scintillation counter (Wallac Microbeta Trilux).
The assay should include enzyme controls (about four, containing 1 μl DMSO instead of inhibitor) and background control containing all ingredients except template.
Compounds are serially diluted in DMSO on a separate dilution plate to 100× the final desired assay concentrations. […]
Incubate the plate over night and read the flash plate in the Microbeta Trilux using the protocol Flash plates H3. […]
IC50 is determined using Graphpad Prism. […]

SMILES: CCCOC(=O)[C@H](C)NP(=O)(OC[C@H]1O[C@@H](n2ccc(=O)[nH]c2=O)[C@](C)(N)[C@@H]1O)Oc1ccccc1 (single isomer, unassigned) [Example 24A]
EC50 ([1]; Hepatitis C virus, Huh-7, 72 h): 2.9 µM

SMILES: CCCOC(=O)[C@H](C)NP(=O)(OC[C@H]1O[C@@H](n2ccc(=O)[nH]c2=O)[C@](C)(N)[C@@H]1O)Oc1ccccc1 (single isomer, unassigned) [Example 24B]
EC50 [1]: 1.5 µM

SMILES: CCC[C@H](C)OC(=O)[C@@H](C)NP(=O)(OC[C@H]1O[C@@H](n2ccc(=O)[nH]c2=O)[C@](C)(N)[C@@H]1O)Oc1ccccc1 (single isomer, unassigned) [Example 25A]
EC50 [1]: 4.7 µM

SMILES: CCC[C@H](C)OC(=O)[C@@H](C)NP(=O)(OC[C@H]1O[C@@H](n2ccc(=O)[nH]c2=O)[C@](C)(N)[C@@H]1O)Oc1ccccc1 (single isomer, unassigned) [Example 25B]
EC50 [1]: 0.38 µM

SMILES: C[C@H](NP(=O)(OC[C@H]1O[C@@H](n2ccc(=O)[nH]c2=O)[C@](C)(N)[C@@H]1O)Oc1ccccc1)C(=O)OCC1CC1 (single isomer, unassigned) [Example 26A]
EC50 [1]: 1.7 µM

SMILES: C[C@H](NP(=O)(OC[C@H]1O[C@@H](n2ccc(=O)[nH]c2=O)[C@](C)(N)[C@@H]1O)Oc1ccccc1)C(=O)OCC1CC1 (single isomer, unassigned) [Example 26B]
EC50 [1]: 0.76 µM

SMILES: C[C@H](NP(=O)(OC[C@H]1O[C@@H](n2ccc(=O)[nH]c2=O)[C@](C)(N)[C@@H]1O)Oc1ccccc1)C(=O)OCC1CCCC1 (single isomer, unassigned) [Example 27A]
EC50 [1]: 2.2 µM

SMILES: C[C@H](NP(=O)(OC[C@H]1O[C@@H](n2ccc(=O)[nH]c2=O)[C@](C)(N)[C@@H]1O)Oc1ccccc1)C(=O)OCC1CCCC1 (single isomer, unassigned) [Example 27B]
EC50 [1]: 0.38 µM

SMILES: CCC(CC)OC(=O)[C@H](C)NP(=O)(OC[C@H]1O[C@@H](n2ccc(=O)[nH]c2=O)[C@](C)(N)[C@@H]1O)Oc1ccccc1 (single isomer, unassigned) [Example 28A]
EC50 [1]: 34 µM

SMILES: CCC(CC)OC(=O)[C@H](C)NP(=O)(OC[C@H]1O[C@@H](n2ccc(=O)[nH]c2=O)[C@](C)(N)[C@@H]1O)Oc1ccccc1 (single isomer, unassigned) [Example 28B]
EC50 [1]: 0.48 µM

SMILES: C[C@@]1(N)[C@H](O)[C@@H](CO)O[C@H]1n1ccc(=O)[nH]c1=O [Example 1, 1-((2R,3R,4S,5R)-3-amino-4-hydroxy-5-(hydroxymethyl)-3-methyltetrahydrofuran-2-yl)pyrimidine-2,4(1H,3H)-dione]
EC50 ([1]; Hepatitis C virus, Huh-7, 72 h): > 50 µM

SMILES: CC(C)OC(=O)[C@H](C)NP(=O)(OC[C@H]1O[C@@H](n2ccc(=O)[nH]c2=O)[C@](C)(N)[C@@H]1O)Oc1ccccc1 (some centres unmarked) [Example 2]
EC50 [1]: 2 µM

IC50 (HCV NS5B-21): 13 µM
SMILES: C[C@@]1(N)[C@H](O)[C@@H](COP(=O)(O)OP(=O)(O)OP(=O)(O)O)O[C@H]1n1ccc(=O)[nH]c1=O [Example 3, potassium ((2R,3S,4R,5R)-4-amino-5-(2,4-dioxo-3,4-dihydropyrimidin-1(2H)-yl)-3-hydroxy-4-methyltetrahydrofuran-2-yl)methyl triphosphate]

SMILES: C[C@@]1(N)[C@H](O)[C@@H](COP(=O)(O)O)O[C@H]1n1ccc(=O)[nH]c1=O [Example 4, ((2R,3S,4R,5R)-4-amino-5-(2,4-dioxo-3,4-dihydropyrimidin-1(2H)-yl)-3-hydroxy-4-methyltetrahydrofuran-2-yl)methyl dihydrogen Phosphate]
EC50 [1]: > 50 µM
